Data set [1] deals with T1, human androgen receptor (Homo sapiens, UniProt P10275).
T1 construct: expressed in transfected cells
T1 sequence (P10275 1-920): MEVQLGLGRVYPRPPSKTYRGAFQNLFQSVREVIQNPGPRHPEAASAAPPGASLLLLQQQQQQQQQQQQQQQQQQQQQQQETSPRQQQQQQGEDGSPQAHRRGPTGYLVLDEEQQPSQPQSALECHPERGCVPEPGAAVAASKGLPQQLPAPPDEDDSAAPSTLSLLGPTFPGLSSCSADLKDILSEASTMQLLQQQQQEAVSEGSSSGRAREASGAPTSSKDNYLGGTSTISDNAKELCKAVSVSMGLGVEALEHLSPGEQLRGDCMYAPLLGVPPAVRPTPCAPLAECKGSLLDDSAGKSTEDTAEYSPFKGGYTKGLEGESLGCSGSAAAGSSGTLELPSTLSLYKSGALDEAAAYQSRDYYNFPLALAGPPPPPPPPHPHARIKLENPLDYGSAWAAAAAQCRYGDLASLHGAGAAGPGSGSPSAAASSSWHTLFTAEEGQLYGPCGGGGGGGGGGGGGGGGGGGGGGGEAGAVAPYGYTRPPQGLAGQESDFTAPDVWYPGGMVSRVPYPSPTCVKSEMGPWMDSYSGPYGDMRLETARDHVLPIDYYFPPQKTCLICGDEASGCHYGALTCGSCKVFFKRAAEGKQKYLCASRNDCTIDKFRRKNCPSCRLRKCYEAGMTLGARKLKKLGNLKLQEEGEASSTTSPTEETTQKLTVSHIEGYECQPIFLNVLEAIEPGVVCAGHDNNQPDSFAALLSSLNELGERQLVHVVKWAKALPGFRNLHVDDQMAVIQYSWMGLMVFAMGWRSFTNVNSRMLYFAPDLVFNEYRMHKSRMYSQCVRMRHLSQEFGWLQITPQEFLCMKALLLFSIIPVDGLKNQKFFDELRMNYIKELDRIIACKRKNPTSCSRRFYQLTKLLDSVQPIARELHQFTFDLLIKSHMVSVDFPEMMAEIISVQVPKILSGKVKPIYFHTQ
The data set can be described thus: Investigation of agonist effects: androgen receptor reporter gene (MMTV-luciferase) assay in 11A11B2 cells. The data set is classed as cell-based. The settings on record: compound concentration showing a transcription activity of 5% (0.1 nmol/L DHT = 100%, assay medium alone = 0%), 48 hours. As to the method:
(§1) HeLa cells (purchased from Dai-Nippon Seiyaku K.K.) were cultured overnight in Dulbecco's Modified Eagle Medium containing no phenol red, but containing 3% charcoal-treated fetal bovine serum (hereafter referred to as DCC-FBS) (this medium is hereafter referred to as phenol-red-free DMEM). An MMTV-Luc-Hyg vector (reporter plasmid with mouse mammary tumor virus long terminal repeat as an androgen response element: vector obtained by substituting the chloramphenicol acetyl transferease gene of a GM-CAT vector (A.T.C.C No. 67282) purchased from the A.T.C.C. with the firefly luciferase gene, and inserting a hygromycin resistance gene as a drug resistance gene), and pSG5-hAR-neo (human androgen receptor expression vector: a vector having an androgen receptor gene under the control of the SV40 promoter, and having a neomycin resistance gene inserted as a drug resistance gene) were transfected into the HeLa cells using an FuGENE™ 6 Transfection Reagent (obtained from Roche).
(§2) A clone in which transcription activity was elevated in a dose-dependent manner by dihydrotestosterone was obtained by culturing the transfected cells in DMEM containing 500 μg/mL neomycin, 300 μg/mL hygromycin and 10% fetal bovine serum (hereafter referred to as FBS). The clone cells thus obtained (11A11B2 cells) were maintained and propagated using DMEM containing 400 μg/mL neomycin, 200 μg/mL hygromycin and 10% FBS, and were propagated using phenol-red-free DMEM containing 10% DCC-FBS three to four days prior to the performance of an androgen receptor reporter gene assay.
The 11A11B2 cells were inoculated in a white clear-bottomed 96-well microplate (COSTAR) so that the cell concentration was 1.0×10^4/well, using phenol-red-free DMEM containing 3% DCC-FBS (hereafter referred to as the assay medium), and were cultured overnight. The assay medium containing the compounds of the examples and compounds of the comparative examples were added so that the final concentrations of the compounds of the examples and compounds of the comparative examples were 1, 10, 100, 1,000 and 10,000 nmol/L (however, in the case of the compounds of Examples 1 and 2, the compounds were added so that the final concentrations were […]), and the cells were cultured for 48 hours, after which the transcription activity value was measured. The transcription activity was measured using a Bright-Glo™ Luciferase Assay System (Promega).
The transcription activity rates of the compounds of the examples were calculated from the transcription activity measured by the abovementioned method, with the transcription activity value obtained at 0.1 nmol/L DHT taken as 100%, and the transcription activity value in the case of the assay medium alone taken as 0%. The compound concentration showing a transcription activity of 5% (EC5 value) was calculated from a linear equation for two points on either side of 5%.
In general terms: Reporter assays use an easily measured gene product as a stand-in for the process of interest.

The target in a further data set is androgen receptor (Homo sapiens, UniProt P10275). Conditions: at a concentration of 10 μmol/L; cited from earlier work.
For data set [2] the following is noted: prostate cancer patients treated with flutamide; cited from earlier work.
Data set [3] addresses T1, human androgen receptor. The data set can be described thus: Investigation of antagonist effects: androgen receptor reporter gene (MMTV-luciferase) assay in 11A11B2 cells with 0.1 nmol/L DHT. The data set is classed as cell-based. As for the experimental part: as §1, §2
After culturing for 48 hours, the transcription activity values were measured. The transcription activity was measured using a Bright-Glo™ Luciferase Assay System (Promega).
The transcription activity rates of the compounds of the examples were calculated from the transcription activity measured by the abovementioned method, with the transcription activity value obtained at 0.1 nmol/L DHT taken as 100%, and the transcription activity value in the case of the assay medium alone taken as 0%.
Accordingly, the value obtained by subtracting the transcription activity rate of Test Example 1 (Investigation of Agonist Activity) from the transcription activity rate of Test Example 2 (Investigation of Antagonist Activity) was used to calculate the compound concentration at which a transcription activity of 50% was shown (IC50 value). The IC50 value was calculated from a linear equation for two points on either side of 50%.

In a further data set the test system is castrated rats. The settings on record: continuously administered for two weeks; cited from earlier work.
The mark [4] stands for this setting: 11A11B2 cells, 0.1 nmol/L DHT, 48 hours, agonist transcription activity rate of Test Example 1 subtracted, read-out: IC50.

By IC50 is commonly meant the concentration needed to halve the response being measured.

Each structure is given as a SMILES string. Where two headings read alike, the source gives them in different places. Bounds are passed on as bounds.

As to `CN1C(=S)N(c2ccc(C#N)c(C(F)(F)F)c2)C(=O)C1(C)C` [Comparative Example 1, 4-(5-oxo-2-thioxo-3,4,4-trimethyl-1-imidazolidinyl)-2-trifluoromethylbenzonitrile, reference compound], the EC5 at human androgen receptor [1] was 8e-05 µM.

On human androgen receptor [1], `CC(=O)NCCN1C(=S)N(c2ccc(C#N)c(C(F)(F)F)c2)C(=O)C1(C)C` [Comparative Example 2, 4-[3′-(2″-N-acetylaminoethyl)-4′,4′-dimethyl-5′-oxo-2′-thioxo-1′-imidazolidinyl]-2-trifluoromethylbenzonitrile, reference compound] came in with an EC5 of 3 µM.

In turn, `CC(C)(O)C(=O)Nc1ccc([N+](=O)[O-])c(C(F)(F)F)c1` [Comparative Example 4, hydroxyflutamide] yielded an EC5 at human androgen receptor [1] of 0.01 µM. The “androgen receptor transcription activity” value on androgen receptor is given as “increase”. Also, the “hydroxyflutamide concentration in the blood” value in data set [2] was “several”.

As to `CC1(C)C(=O)N(c2ccc(C#N)c(Cl)c2)C(=S)N1CCCS(N)(=O)=O` [Example 1, 3-[3-(3-chloro-4-cyanophenyl)-5,5-dimethyl-4-oxo-2-thioxoimidazolidin-1-yl]propane-1-sulfonic acid amide], the EC5 at human androgen receptor [1] was more than 10 µM. On human androgen receptor [3], this molecule showed an IC50 of 200 nM.

As to `COc1cc(N2C(=O)C(C)(C)N(CCCS(N)(=O)=O)C2=S)ccc1C#N` [Example 2, 3-[3-(4-cyano-3-methoxyphenyl)-5,5-dimethyl-4-oxo-2-thioxoimidazolidin-1-yl]propane-1-sulfonic acid amide], on human androgen receptor [1], the EC5 is more than 10 µM. Besides, on human androgen receptor [3] (setting [4]), the 50% inhibitory concentration (IC50) turned out to be 300 nM.

Molecule `CC1(C)C(=O)N(c2ccc(C#N)c(Cl)c2)C(=S)N1CCCCS(N)(=O)=O` [Example 26, 4-[3-(3-chloro-4-cyanophenyl)-5,5-dimethyl-4-oxo-2-thioxoimidazolidin-1-yl]butane-1-sulfonic acid amide] came in with an EC5 at human androgen receptor [1] of more than 10 µM. Moreover, the IC50 at human androgen receptor [3] (setting [4]) came to 900 nM.

With `CC1(C)C(=O)N(c2ccc(C#N)c(Cl)c2)C(=S)N1CCCCCS(N)(=O)=O` [Example 27, 5-[3-(3-chloro-4-cyanophenyl)-5,5-dimethyl-4-oxo-2-thioxoimidazolidin-1-yl]pentane-1-sulfonic acid amide], the EC5 on human androgen receptor [1] was more than 10 µM. The 50% inhibitory concentration (IC50) at human androgen receptor [3] (setting [4]) was found to be 400 nM.

Consider `CC1(C)C(=O)N(c2ccc(C#N)c(Cl)c2)C(=S)N1CCS(N)(=O)=O` [Example 28, 2-[3-(3-chloro-4-cyanophenyl)-5,5-dimethyl-4-oxo-2-thioxoimidazolidin-1-yl]ethane-1-sulfonic acid amide], for which, at human androgen receptor [1], the EC5 was more than 10 µM. In addition, at human androgen receptor [3] (setting [4]), the IC50 worked out at 400 nM.

In the case of `CC(=O)O[C@]1(C(C)=O)CC[C@H]2[C@@H]3C=C(Cl)C4=CC(=O)CC[C@]4(C)[C@H]3CC[C@@]21C` [chlormadinone acetate], the “weight of the prostate gland” value in the data set with castrated rats is “increase”.

Consider `CC(=O)O[C@]1(C(C)=O)CC[C@H]2[C@@H]3C=C(Cl)C4=CC(=O)[C@@H]5C[C@@H]5[C@]4(C)[C@H]3CC[C@@]21C` [cyproterone acetate], for which the “weight of the prostate gland” value in the data set with castrated rats is listed as “increase”.

These data come from patent US7803826B2, “Imidazolidine derivatives” (Chugai Seiyaku Kabushiki Kaisha, priority 2004, dated 2010).
